Measurements: patent US8920851B2, “Treatment of neurodegenerative diseases” (Velacor Therapeutics Pty Ltd, priority 2006, dated 2014)
“Also recorded” adds a separate entry of the source. Read-outs that look alike come from different tables or passages of the source.

Legend:
GSK-3β = GSK-3β Ser9 phosphorylation by immunoblot in PC3 cells; assay type: cell-based, human; conditions: densitometry, sodium selenate 500 μM 3 h, LY294002 50 μM 1 h
Excerpt: The metabolic effects of insulin on glycogen synthesis are mediated by glycogen synthase kinase-3 (GSK-3), a direct downstream substrate of Akt. GSK-3 is a ubiquitously expressed serine/threonine kinase that phosphorylates and inactivates glycogen synthase. In response to activation of the insulin receptor, Akt phosphorylates and inactivates the repressor GSK-3, thereby stimulating glycogen synthesis [Cross et al., 1995]. […] Resolved whole cell lysates were subjected to immunoblot analysis with an antibody that specifically recognizes GSK-3β only when phosphorylated at Ser9, a site critical for its kinase activity, and comparison made with the cytoskeletal protein β-tubulin as a loading control.

[1] = tested on: PC3 prostate carcinoma cells; assay: Intracellular redox state assay (DCFDA, flow cytometry)
Procedure: 1×10^6 PC3 prostate carcinoma cells were plated in 60 mm dishes, allowed to attach for 8 h, and serum starved overnight. Cells were incubated with DCFDA 5 μM for 15 min prior to treatment.
The proportion of fluorescent cells was then determined by flow cytometry.
Intracellular redox state was determined using 2′,7′-dichlorodihydrofluorescein diacetate (DCFDA). […] Cells were equilibrated with 5 μM of DCFDA for 15 min prior to various treatments. Adherent cells were then harvested, washed twice with PBS and the proportion of fluorescent cells determined immediately by flow cytometry.

[2] = biological target: T1, purified human PP2A A-C dimer (Homo sapiens, UniProt P67775); assay: Free sulfhydryl groups in purified PP2A (Ellman's assay); assay type: biochemical; conditions: 0.01 U PP2A, 10 mM of each agent, 15 min at 37° C.
T1 construct: purified PP2A A-C dimer purified from human red blood cells; purchased Upstate 14-111 (lot #28002); host or cells: human red blood cells (native purification)
T1 sequence (P67775 whole entry): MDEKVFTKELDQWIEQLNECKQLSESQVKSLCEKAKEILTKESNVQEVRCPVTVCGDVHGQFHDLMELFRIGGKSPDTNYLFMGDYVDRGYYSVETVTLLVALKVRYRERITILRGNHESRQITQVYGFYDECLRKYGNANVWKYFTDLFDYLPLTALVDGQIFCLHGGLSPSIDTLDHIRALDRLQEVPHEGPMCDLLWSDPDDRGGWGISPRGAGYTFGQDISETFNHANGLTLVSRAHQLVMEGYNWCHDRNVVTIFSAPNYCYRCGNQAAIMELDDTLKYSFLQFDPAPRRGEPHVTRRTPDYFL
T1 sequence (P30153 2-589 partner limits assumed): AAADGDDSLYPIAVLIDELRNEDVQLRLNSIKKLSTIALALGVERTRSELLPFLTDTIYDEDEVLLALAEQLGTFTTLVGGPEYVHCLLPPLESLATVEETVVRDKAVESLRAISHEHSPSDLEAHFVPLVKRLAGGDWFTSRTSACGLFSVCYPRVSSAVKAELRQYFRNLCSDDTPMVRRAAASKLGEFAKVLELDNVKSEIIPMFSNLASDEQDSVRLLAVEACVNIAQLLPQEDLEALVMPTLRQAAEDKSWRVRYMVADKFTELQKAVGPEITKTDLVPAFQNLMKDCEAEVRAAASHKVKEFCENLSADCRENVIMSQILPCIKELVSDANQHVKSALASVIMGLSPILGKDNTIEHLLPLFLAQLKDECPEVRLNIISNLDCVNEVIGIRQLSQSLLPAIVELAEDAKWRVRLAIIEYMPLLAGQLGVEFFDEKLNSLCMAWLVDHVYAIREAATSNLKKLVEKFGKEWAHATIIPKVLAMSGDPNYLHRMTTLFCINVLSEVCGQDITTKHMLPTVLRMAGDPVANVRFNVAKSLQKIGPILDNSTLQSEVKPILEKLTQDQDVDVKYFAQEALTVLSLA
Excerpt: Inactivating reversible oxidation of protein phosphatases involves the modification of a critical cysteine residue within the catalytic domain, ultimately leading to the formation of either intramolecular disulphide or sulphenyl-amide bonds. […] Ellman's reagent (5,5′-Dithio-bis(2-nitrobenzoic acid), DTNB) rapidly forms a disulphide bond with free sulfhydryl groups with the release of chromogenic thiolate ions. […] The quantity of free sulfhydryl groups present within the phosphatase was then determined by the addition of Ellman's reagent and subsequent measurement of absorbance at 412 nm (FIG. 5C).
The change in free sulfhydryl groups in purified PP2A following various treatments was determined using Ellman's Reagent. To 0.01 U of PP2A was added to 37.5 μl of dilution buffer (30 mM Tris-HCl, 3 mM EDTA, pH 8.2), 12.5 μl DTNB reagent (Ellman's reagent) and 200 μl of methanol. Samples were incubated for 5 min at RT, and then extinction measured in duplicate for each at 412 nm.

Akt = Akt phosphorylation by immunoblot in PC3 prostate carcinoma cells; assay type: cell-based, human; conditions: for effect of hydrogen peroxide on sodium selenate induced reduction of Akt phosphorylation: sodium selenate 500 μM; for Akt activation: ratio of phosphorylated Akt to total Akt versus control: serum starved PC3 cells, 500 μM, 1 hour, densitometry
Procedure: Such dephosphorylation may be the result of a direct inhibitory effect on the Akt protein itself, or alternatively, can be similarly achieved indirectly by boosting a negative regulator or inhibiting a positive regulator of Akt phosphorylation. […] PC3 prostate carcinoma cells were plated in 100 mm dishes, and when 70-80% confluent serum starved overnight. […] Cells were lysed, and the level of Akt Ser473 phosphorylation determined by immunoblot analysis with an activation specific antibody, and comparison made to levels of Akt protein expressed. To determine the effect on purified Akt, similarly plated but untreated PC3 cells were lysed in RIPA (minus phosphatase inhibitors), a stringent cell lysis buffer that minimizes maintenance of protein-protein complexes. […] The immunoprecipitated protein was then resolved and the level of activated Akt determined by immunoblot analysis as described above.
A reduction in net Akt activity could be achieved indirectly by either preventing the initial Akt phosphorylation, or alternatively, increasing Akt dephosphorylation [Kohn et. al. 1996]. […] Initially okadaic acid, a polyether toxin from red-tide algae (and causative agent of diarrhoetic shellfish poisoning) which inhibits the phospho-protein phosphatases PP1 and PP2A, two phosphatases implicated in the regulation of Akt dephosphorylation was used [Fernandez et al., 2002]. 5×10^5 PC3 prostate carcinoma cells were plated per well of a 6 well plate, allowed attach for 8 h, and then serum starved overnight. […] Lysed cells were resolved by SDS-PAGE, then probed for Akt phosphorylation at the Ser473 residue by immunoblot analysis with an antibody that specifically recognizes Akt when phosphorylated at this site, and comparison made with the total levels of Akt protein expressed (FIG. 2A).
This panel included tautamycin 500 nM (PP1), okadaic acid 500 nM (low dose PP2A>PP1), endothall A (PP2A) 100 μM, calyculin A 2 nM (low dose PP1>PP2A), calyculin A 10 nM (high dose inhibits PP1 and PP2A) and cyclosporine A 400 ng/ml (PP2B). […] Again, lysed cells were resolved by SDS-PAGE, then membranes probed for Akt phosphorylation at the Ser^473 residue by immunoblot analysis with an antibody that specifically recognizes Akt when phosphorylated at this site, and comparison made with the total levels of Akt protein expressed.
5×10^5 PC3 prostate carcinoma cells were plated per well in a 6-well plate, allowed to attach for 8 h, and then serum starved overnight. […] Equal amounts of whole cell lysates were resolved, and then subjected to immunoblot analysis to determine the level of phosphorylated Akt Ser^473. Comparison was then made with the total level of Akt protein expressed.
The phosphorylation status of Akt in whole cell lysates was determined using activation specific antibodies.
Other inorganic (sodium selenite, selenium dioxide, selenium sulphide and selenious acid) and organic (methylselenocysteine, selenocystine) selenium species were tested for their ability to affect Akt activation. All forms were dissolved in water with the exception of selenium sulphide which was solubilised in DMSO, and added to serum starved PC3 cells at a concentration of 500 μM for 1 hour, Whole cell lysates were then resolved, and the activation status of Akt determined by immunoblotting with an antibody that specifically recognizes Akt when phosphorylated at the Ser473 site, as well as the total level of Akt expression (pan Akt). To quantify the degree of Akt activation, immunoblots were digitalised, and the ratio of phosphorylated Akt to total Akt determined by densitometry.

PP2A = biological target: T2, PP2A (Homo sapiens, UniProt P67775); assay: PP2A immunoprecipitation from treated PC3 cells and phosphatase assay; assay type: cell-based; conditions: PC3 cells treated 1 hour; sodium selenate 500 μM, endothall A 100 μM
T2 construct: the phosphatase activity of the general pool of intracellular PP2A; endogenous in cells; host or cells: PC3 prostate carcinoma cells
T2 sequence (P67775 whole entry): as the sequence (P67775 whole entry) above
T2 sequence (P30153 2-589 partner limits assumed): as the sequence (P30153 2-589 partner limits assumed) above
Procedure: Free phosphate was removed by passing cell lysates through desalting columns, and measured phosphatase activity using a phosphor-serine peptide and malachite green.
1×10^6 PC3 cells were plated in 60 mm plates and allowed attach for 8 h, then serum starved over night. Following various treatments as indicated, the media was aspirated and cells washed once with TBS. Cells were lysed in 0.3 ml of lysis buffer (20 mM Tris-HCl, pH 7.0, 1% Igepal-CA, 2 mM EDTA, 2 mM EGTA, 1× Complete Protease Inhibitor Cocktail) and phosphates removed by passing the lysate through a 2 ml Zeba Desalt Spin Column (Pierce #89890). Protein concentration of the desalted lysate was determined by the BCA assay as previously described. 100-150 μg of total protein was immunoprecipitated with 4 μg of anti-PP2A monoclonal antibody and 30 μl of Protein A-sepharose slurry at 4° C. for 2 h. Samples were then pelleted at 14,000 rpm for 1 min, washed three times in excess TBS and once with pNPP assay buffer. After the final spin all of the supernatant was carefully removed and 500 μM of phosphor-threonine peptide in a final volume of 80 μl added to the beads. Samples were incubated at 30° C. for 10 min with agitation, and the reaction terminated by the addition of malachite green solution. Absorbance was read at 590 nm for each sample in duplicate.

[3] = biological target: T3, human PP2A A-C heterodimer (Homo sapiens, UniProt P67775); assay type: biochemical
T3 construct: purified PP2A A-C dimer purified from human red blood cells; purchased Upstate 14-111 (lot #28002); host or cells: human red blood cells (native purification)
T3 sequence (P67775 whole entry): as the sequence (P67775 whole entry) above
T3 sequence (P30153 2-589 partner limits assumed): as the sequence (P30153 2-589 partner limits assumed) above
Procedure: In initial assays a chemical substrate of phosphatase enzymatic action, para-nitrophennylphosphate (pNPP) was used, which following hydrolysis of the phosphate moiety generates para-nitrophenol, an intensely yellow chromogen which is soluble under alkaline conditions. […] Absorbance of each sample was measured in duplicate at 405 nm with 590 nm as a reference. PP2A activity was calculated using the following equation: activity=(sample vol in liters)×A405/1.78×104M^−1 cm^−1 (extinction coefficient)×0.25 cm×15 minutes×0.05 U enzyme Data is presented as mean relative phosphatase activity ±SEM from at least three independent experiments.
Para-nitrophennylphosphate (PNPP) is a chemical substrate of phosphatase enzymes, which following hydrolysis of the phosphate moiety generates para-nitrophenol, an intensely yellow chromogen, soluble under alkaline conditions. In assays measuring relative phosphatase activity, 0.05 U of purified PP2A was mixed with 5 μl of 40 mM NiCl2 and 5 μl of BSA solution (5 mg/ml) in a microcentrifuge tube. Various treatments were added as indicated, and the volume adjusted to 80 μl with pNPP assay buffer. Samples were pre-incubated at 37° C. for 15 min. pNPP substrate was freshly prepared before each assay by dissolving 1.5 mg/ml pNPP in 50 mM Tris-HCl, pH 7.0. To start the phosphatase reaction, 120 μl of pNPP substrate was added, and samples incubated for a further 15 min at 37° C. Absorbance of each sample was measured in duplicate at 405 nm with 590 nm as a reference. PP2A activity was calculated using the following equation: activity=(Sample volume in liters)×A405/1.78×10^4M^−1cm^−1 (Extinction coefficient)×0.25 cm×15 min×0.05 U enzyme.

p70S6K = assay type: cell-based, human; conditions: PC3 cells; LY294002 50 μM 1 hour, sodium selenate 500 μM 1 hour, okadaic acid 500 nM
Procedure: 5×10^5 PC3 prostate carcinoma cells were plated per well of a 6-well plate, allowed to attach for 8 hours, then serum starved overnight. […] Equal amounts of whole cell lysates (75 μg) were resolved by SDS-PAGE, and the level of p70S6K phosphorylation determined by immunoblot analysis with an antibody that specifically recognizes the p70S6K protein when phosphorylated on Thr389. Comparison is made with the protein loading control β tubulin.

PP2A A-C dimer = biological target: T4, PP2A A-C dimer (Homo sapiens, UniProt P67775); assay: Phosphopeptide / malachite green assay with purified PP2A; assay type: biochemical; conditions: 50 μM of each selenium compound
T4 construct: purified PP2A A-C dimer purified from human red blood cells; purchased Upstate 14-111 (lot #28002); host or cells: human red blood cells (native purification)
T4 sequence (P67775 whole entry): as the sequence (P67775 whole entry) above
T4 sequence (P30153 2-589 partner limits assumed): as the sequence (P30153 2-589 partner limits assumed) above
Procedure: The amount of inorganic phosphate released by enzymatic activity was determined by the addition of malachite green, and absorbance read at 590 nm. Malachite green forms a stable green complex in the presence of molybdate and orthophosphate, allowing the concentration of inorganic phosphate present to be measured. Data is presented as mean absorbance at 590 nm from at least three independent experiments, ±SEM.
1 mg of synthetic phosphopeptides K-R-pT-I-R-R (Upstate #12-219) and R-R-A-pS-V-A (Upstate #12-220) were dissolved in 1.10-1.285 ml of dH2O to prepare a 1 mM solution, then aliquoted and stored at −20° C. until use. 0.01-0.05 U of purified PP2A A-C dimer purified from human red blood cells, or 0.05 U of rabbit PP1 purified from skeletal muscle was mixed with 500 μM of phosphopeptide and incubated in the presence of various treatments as indicated at 37° C. on a heating block for 15 min. Each reaction was made up to a total volume of 25 μl with pNPP buffer (50 mM Tris-HCl, pH 7.0, 100 μM CaCl2). The enzyme reaction was terminated by adding 100 μl of malachite green solution (0.034% malachite green in 10 mM ammonium molybdate, 1 N HCl, 3.4% ethanol, 0.01% Tween-20). Malachite green forms a stable green complex in the presence of molybdate and orthophosphate, allowing the amount of inorganic phosphate present to be measured. Absorbance was read in duplicate for each sample at 590 nm.

O=c1cc(N2CCOCC2)oc2c(-c3ccccc3)cccc12 [LY294002, reference compound]
reduction of GSK-3β phosphorylation levels (GSK-3β): ~60%

CC(=O)N[C@@H](CS)C(=O)O [NAC, N-acetylcysteine]
basal proportion of fluorescent cells (ROS) ([1]; 1 h, sodium selenate 500 μM, NAC 1 mM): small reduction in the basal proportion of fluorescent cells

CCN1C(=O)C=CC1=O [NEM, N-ethylmaleimide, reference compound]
number of free sulfhydryl groups in PP2A [2]: significantly reduced the number of free sulfhydryl groups

O=C(O)[C@@H]1[C@H](C(=O)O)[C@H]2CC[C@@H]1O2 [endothall A, reference compound]
effect of PPP inhibitor pretreatment on sodium selenate induced Akt Ser473 dephosphorylation (Akt): completely blocked sodium selenate induced Akt dephosphorylation
phosphatase activity of immunoprecipitated PP2A (general intracellular pool) (PP2A): significantly reduced phosphatase activity

OO [hydrogen peroxide]
effect of hydrogen peroxide on sodium selenate induced reduction of Akt phosphorylation (Akt; PC3 cells, hydrogen peroxide 0.25 mM for 10 min): unaffected
effect of hydrogen peroxide on sodium selenate induced reduction of Akt phosphorylation (Akt; PC3 cells, hydrogen peroxide 1 mM for 10 min): completely abolished the dephosphorylating effect of sodium selenate
number of free sulfhydryl groups in PP2A [2]: significantly reduced the number of free sulfhydryl groups
generation of intracellular oxygen free radicals ([1]; hydrogen peroxide 500 μM, 10 min): marked increase in the generation of intracellular oxygen free radicals

C=C1[C@@H](O)[C@@H]2O[C@]3(CC[C@H](/C=C/[C@@H](C)[C@@H]4CC(C)=C[C@@]5(O[C@H](C[C@@](C)(O)C(=O)O)CC[C@H]5O)O4)O3)CC[C@H]2O[C@@H]1[C@@H](O)C[C@H](C)[C@H]1O[C@@]2(CCCCO2)CC[C@H]1C [okadaic acid]
effect of PPP inhibitor pretreatment on sodium selenate induced Akt Ser473 dephosphorylation (Akt; PC3 cells, inhibitor 30 min (okadaic acid 500 nM, endothall A 100 μM, tautamycin 500 nM, calyculin A 2 nM, cyclosporine A 400 ng/ml), then sodium selenate 500 μM 1 h): completely blocked sodium selenate induced Akt dephosphorylation
effect of pretreatment on the sodium selenate induced reduction of Akt phosphorylation (Akt; PC3 cells, okadaic acid 5 nM 30 min, then sodium selenate 500 μM 1 h): unaffected
Akt Ser473 phosphorylation in non-selenate controls (Akt; PC3 cells, okadaic acid 1000 nM): boosts Akt phosphorylation in non-selenate controls
effect of pretreatment on the sodium selenate induced reduction of Akt phosphorylation (Akt; PC3 cells, okadaic acid 1000 nM 30 min, then sodium selenate 500 μM 1 h): completely abolishes the inhibitory effect of sodium selenate
PP2A phosphatase activity (pNPP) ([3]; 0.05 U PP2A dimer, 30 min at 37° C., sodium selenate 5 mM, okadaic acid 500 nM): completely abolished
p70S6K phosphorylation on Thr389 (p70S6K): boosts the level of phosphorylation observed

O=[Se]=O [selenium dioxide]
Akt activation: ratio of phosphorylated Akt to total Akt versus control (Akt): induce activation of Akt above control (con) levels

S=[Se]=S [selenium sulfide]
Akt activation: ratio of phosphorylated Akt to total Akt versus control (Akt): induce activation of Akt above control (con) levels

N[C@@H](C[SeH])C(=O)O [selenocysteine]
Akt activation: ratio of phosphorylated Akt to total Akt versus control (Akt): induce activation of Akt above control (con) levels

C[Se]CC[C@H](N)C(=O)O [selenomethionine, reference compound]
Akt phosphorylation at Ser473 (Akt; PC3 cells, 500 μM of each compound, various timepoints): did not affect the level of Akt phosphorylation; also recorded: did not affect the level of phosphorylation of Akt
PP2A phosphatase activity, pNPP as substrate ([3]; 5 mM of each selenium compound): neither sodium selenite nor selenomethionine significantly affected PP2A phosphatase activity
PP2A phosphatase activity, serine phosphopeptide as substrate (PP2A A-C dimer): neither sodium selenite nor selenomethionine significantly affected PP2A phosphatase activity

O=[Se](O)O [selenous acid]
Akt activation: ratio of phosphorylated Akt to total Akt versus control (Akt): induce activation of Akt above control (con) levels
